Laboratory results taken from ChEMBL document CHEMBL1201862, “PubChem BioAssay data set” (2004).
Several values for one entry are separate records, joined by “and”; a condition that tells them apart may be missing. Equal values may be shown once. Where a name gives a salt, the structure may show the parent alone.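 Compound exposure: 48 hours, 5 concentrations, 96-well plates. GI50 = concentration required for 50% inhibition of growth.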 Activity calls are given as the source filed them. No stated cut-off is given here; in the data, active = GI50 up to about 1.1 µM and inactive = higher.

Key:
Assay in all cases: NCI tumour cell line growth inhibition, 48 h
786-0 = system: 786-0
A498 = system: A498
CAKI-1 = system: CAKI-1
COLO 205 = system: COLO 205
HCT-15 = system: HCT-15
HL-60 = system: HL-60
HT-29 = system: HT-29
KM12 = system: KM12
M14 = system: M14
Malme-3M = system: Malme-3M
OVCAR-3 = system: OVCAR-3
OVCAR-5 = system: OVCAR-5
RXF 393 = system: RXF 393
SF-539 = system: SF-539
SK-MEL-2 = system: SK-MEL-2
SN12C = system: SN12C
SW-620 = system: SW-620
TK-10 = system: TK-10
UACC-257 = system: UACC-257
DU-145 = system: DU-145

| Structure (SMILES) | GI50 (786-0) | GI50 (A498) | GI50 (CAKI-1) | GI50 (COLO 205) | GI50 (HCT-15) [µM] | GI50 (HL-60) | GI50 (HT-29) | GI50 (KM12) | GI50 (M14) | GI50 (Malme-3M) | GI50 (OVCAR-3) | GI50 (OVCAR-5) | GI50 (RXF 393) | GI50 (SF-539) | GI50 (SK-MEL-2) | GI50 (SN12C) | GI50 (SW-620) | GI50 (TK-10) | GI50 (UACC-257) | GI50 (DU-145) |
| --- | --- | --- | --- | --- | --- | --- | --- | --- | --- | --- | --- | --- | --- | --- | --- | --- | --- | --- | --- | --- |
| O=C1c2ccccc2C(=O)c2c(NCCNCCO)ccc(O)c21 | 3.66 µM (inactive) | 5.53 µM (inactive) | 2.64 µM (inactive) | 2.26 µM (inactive) | 3.46 | 2.61 µM (inactive) | 2.58 µM (inactive) | 2.52 µM (inactive) | 3.23 µM (inactive) | 3.18 µM (inactive) | 6.46 µM (inactive) | 3.4 µM (inactive) | 2.15 µM (inactive) | 2.9 µM (inactive) | 3.54 µM (inactive) | 1.45 µM (inactive) | 2.26 µM (inactive) | 4.65 µM (inactive) | 3.29 µM (inactive) | – |
| Oc1ccccc1-n1nc2ccc3nonc3c2n1 | > 100 µM (inactive) | – | > 100 µM (inactive) | > 100 µM (inactive) | 51.3 | > 100 µM (inactive) | > 100 µM (inactive) | 30.3 µM (inactive) | > 100 µM (inactive) | > 100 µM (inactive) | > 100 µM (inactive) | > 100 µM (inactive) | – | > 100 µM (inactive) | > 100 µM (inactive) | > 100 µM (inactive) | > 100 µM (inactive) | > 100 µM (inactive) | > 100 µM (inactive) | > 100 µM (inactive) |
| C/C=C/C=C/[C@H]1Cc2cc(O)cc(O)c2O1 | > 100 µM (inactive) | > 100 µM (inactive) | 58.9 µM (inactive) | 55 µM (inactive) | 84.9 | 26.1 µM (inactive) | 72.4 µM (inactive) | 61 µM (inactive) | 37.3 µM (inactive) | 52.5 µM (inactive) | 33 µM (inactive) | > 100 µM (inactive) | > 100 µM (inactive) | > 100 µM (inactive) | > 100 µM (inactive) | 55.3 µM (inactive) | 58.6 µM (inactive) | > 100 µM (inactive) | 28.4 µM (inactive) | – |
| COc1ccc(/N=N/c2c(N)nn(C)c2N)cc1 | > 100 µM (inactive) | > 100 µM (inactive) | > 100 µM (inactive) | > 100 µM (inactive) | > 100 | > 100 µM (inactive) | > 100 µM (inactive) | > 100 µM (inactive) | > 100 µM (inactive) | > 100 µM (inactive) | > 100 µM (inactive) | > 100 µM (inactive) | > 100 µM (inactive) | > 100 µM (inactive) | > 100 µM (inactive) | > 100 µM (inactive) | > 100 µM (inactive) | > 100 µM (inactive) | > 100 µM (inactive) | – |
| Nc1nc(Cl)c(N)c(NCC2(CO)CC(Cc3ccccc3)C2)n1 (stereo unspecified) | > 91.4 µM (inactive) | – | > 100 µM (inactive) | 34.9 µM (inactive) | > 79.3 | 4.8 µM (inactive) | 70.6 µM (inactive) | 35.7 µM (inactive) | 55.2 µM (inactive) | – | 26.3 µM (inactive) | > 100 µM (inactive) | > 42.6 µM (inactive) | > 100 µM (inactive) | 52.6 µM (inactive) | > 100 µM (inactive) | > 72.8 µM (inactive) | > 100 µM (inactive) | 0.127 µM (active) | > 100 µM (inactive) |
| C/C(=N\Nc1nc2ccccc2s1)c1cnccn1 | 2.13 µM (inactive) | – | 0.256 µM (active) | 0.344 µM (active) | 0.625 | – | 0.175 µM (active) | 2.07 µM (inactive) | 0.685 µM (active) | 0.505 µM (active) | 0.49 µM (active) | 3.33 µM (inactive) | 12.7 µM (inactive) | 5.24 µM (inactive) | 7.5 µM (inactive) | 1.08 µM (active) | 0.505 µM (active) | – | 4.13 µM (inactive) | 4.34 µM (inactive) |
| CCOC(=O)c1c(SCCO)n(-c2ccccc2)c(=S)n(-c2ccccc2)c1=O | > 100 µM (inactive) | – | > 100 µM (inactive) | > 100 µM (inactive) | > 100 | > 100 µM (inactive) | > 100 µM (inactive) | > 100 µM (inactive) | > 100 µM (inactive) | > 100 µM (inactive) | > 100 µM (inactive) | > 100 µM (inactive) | – | – | > 100 µM (inactive) | > 100 µM (inactive) | > 100 µM (inactive) | > 100 µM (inactive) | > 100 µM (inactive) | > 100 µM (inactive) |
| CCOC(=O)C(NC(=O)CC(C)C)(Nc1ccc(C(F)(F)F)cc1)C(F)(F)F (stereo unspecified) | 82.4 µM (inactive) | – | – | – | 29 | 21 µM (inactive) | 21 µM (inactive) | 14.7 µM (inactive) | > 100 µM (inactive) | 96.4 µM (inactive) | 13.4 µM (inactive) | > 100 µM (inactive) | 35.4 µM (inactive) | > 100 µM (inactive) | 15.7 µM (inactive) | > 100 µM (inactive) | 57.8 µM (inactive) | 40.5 µM (inactive) | 44.3 µM (inactive) | 89.9 µM (inactive) |
| Cc1cc(C)c(N)c(CO)c1 | > 100 µM (inactive) | – | 4.25 µM (inactive) and 2.87 µM (inactive) | 36.2 µM (inactive) and 46.7 µM (inactive) | > 100 | – | – | > 100 µM (inactive) | > 100 µM (inactive) | > 100 µM (inactive) | 32.7 µM (inactive) and 24.4 µM (inactive) | – | – | > 100 µM (inactive) | > 100 µM (inactive) | > 100 µM (inactive) | > 88.3 µM (inactive) and 95.3 µM (inactive) | – | 45.3 µM (inactive) and 58.5 µM (inactive) | > 100 µM (inactive) |
| COc1cnc2cc(C(=O)O)c3c([N+](=O)[O-])cccc3c2c1 | > 100 µM (inactive) | – | > 100 µM (inactive) | > 100 µM (inactive) | > 100 | > 100 µM (inactive) | > 100 µM (inactive) | > 100 µM (inactive) | > 100 µM (inactive) | > 100 µM (inactive) | > 100 µM (inactive) | > 100 µM (inactive) | > 100 µM (inactive) | – | > 100 µM (inactive) | > 100 µM (inactive) | > 100 µM (inactive) | > 100 µM (inactive) | > 100 µM (inactive) | > 100 µM (inactive) |
| CCOC(=O)NC(=O)c1cn(CCCOC(=O)CCCCCCCCCCC(=O)OCCCn2cc(C(=O)NC(=O)OCC)c(=O)n(C)c2=O)c(=O)n(C)c1=O | > 100 µM (inactive) | > 100 µM (inactive) | > 100 µM (inactive) | > 100 µM (inactive) | > 100 | > 100 µM (inactive) | > 100 µM (inactive) | > 100 µM (inactive) | > 100 µM (inactive) | > 100 µM (inactive) | > 100 µM (inactive) | > 100 µM (inactive) | > 100 µM (inactive) | > 100 µM (inactive) | > 100 µM (inactive) | > 100 µM (inactive) | > 100 µM (inactive) | > 100 µM (inactive) | > 100 µM (inactive) | – |
| C1CSC[C@H]2COC[C@@H](CSCCS1)S2 | > 100 µM (inactive) | – | – | > 100 µM (inactive) | > 100 | > 100 µM (inactive) | > 100 µM (inactive) | > 100 µM (inactive) | > 100 µM (inactive) | – | > 100 µM (inactive) | > 100 µM (inactive) | – | > 100 µM (inactive) | – | > 100 µM (inactive) | > 100 µM (inactive) | 50.4 µM (inactive) | > 100 µM (inactive) | > 100 µM (inactive) |
| CC1(C)CC2=C(SC3C=CC=CC3N2)C(=O)C1C(=O)C(N)=O (stereo unspecified) | > 100 µM (inactive) | – | > 100 µM (inactive) | > 100 µM (inactive) | > 100 | 44.1 µM (inactive) | > 100 µM (inactive) | > 100 µM (inactive) | > 100 µM (inactive) | – | > 100 µM (inactive) | > 100 µM (inactive) | – | > 100 µM (inactive) | > 100 µM (inactive) | > 100 µM (inactive) | > 100 µM (inactive) | > 100 µM (inactive) | > 100 µM (inactive) | > 100 µM (inactive) |
| CC(C)CCC[C@@H](C)C1CCC2[C@@H]3CCC4C[C@@H](NS(C)(=O)=O)CC[C@]4(C)C3CC[C@@]21C (stereo partly specified) | > 100 µM (inactive) | – | > 100 µM (inactive) | > 100 µM (inactive) | > 100 | > 100 µM (inactive) | > 100 µM (inactive) | > 100 µM (inactive) | > 100 µM (inactive) | > 100 µM (inactive) | > 100 µM (inactive) | – | > 100 µM (inactive) | > 100 µM (inactive) | > 100 µM (inactive) | > 100 µM (inactive) | > 100 µM (inactive) | > 100 µM (inactive) | > 100 µM (inactive) | > 100 µM (inactive) |
| NCCS [CYSTEAMINE HYDROCHLORIDE] | > 100 µM (inactive) | – | > 100 µM (inactive) | > 100 µM (inactive) | > 100 | > 100 µM (inactive) | > 100 µM (inactive) | > 100 µM (inactive) | > 100 µM (inactive) | > 100 µM (inactive) | > 100 µM (inactive) | > 100 µM (inactive) | – | 45.8 µM (inactive) | > 100 µM (inactive) | > 100 µM (inactive) | > 100 µM (inactive) | > 100 µM (inactive) | > 100 µM (inactive) | > 100 µM (inactive) |
| C=C(C)[C@H]1CC23C(=O)C(C(=O)C(C)C)=C(O)[C@](C)(C[C@H]2C1(C)C)C3=O [LALIBINONE B] | 15.6 µM (inactive) | – | 22 µM (inactive) | 11.1 µM (inactive) | 17.2 | 15.2 µM (inactive) | 11.9 µM (inactive) | 19.6 µM (inactive) | 16.1 µM (inactive) | 14.3 µM (inactive) | 16.1 µM (inactive) | 14.5 µM (inactive) | 12.9 µM (inactive) | – | 15.9 µM (inactive) | 17 µM (inactive) | 17.8 µM (inactive) | 20.2 µM (inactive) | 24 µM (inactive) | 35.7 µM (inactive) |
